Experimental data published in US8674172B2, “Prostate cancer cell lines and their use in screening method” (Institut Gustave Roussy, priority 2009, dated 2014).
“Also recorded” adds a separate entry of the source.

What was measured:
Assay type in all cases: cell-based, human
[1] = test system: IGR-CaP1 cells; test: Hormone-dependent growth assay (WST1 cell survival); conditions: 10^-9M DHT for 72 hours, phenol red free medium with charcoal-stripped serum
Description: (§1) The cell growth kinetic was determined by counting the viable cell number at regular intervals. Cells were seeded in triplicate at 4000 cells/well in 12 well plates in normal culture medium or in medium containing 10% of charcoal-stripped serum. Each day, cells were colored with trypan blue and counted. The doubling-time was calculated from regression equation of the curve. For the hormone-dependent growth assay, cells were seeded at 10 000 cells/well in 96 well plates. After 24 h, the culture medium was replaced with medium without phenol red containing 10% of charcoal-stripped serum and the DHT was added or not at the final concentration of 10^−9M. The medium was replaced each day. After 72 hours, cell survival was measured with the WST1 test according the manufacturer's procedures.

[2] = test system: PC3 cells; test: as above; conditions: 10^-9M DHT for 72 hours, phenol red free medium with charcoal-stripped serum
Description: as §1

[3] = test system: LNCaP cells; test: as above; conditions: 10^-9M DHT for 72 hours, phenol red free medium with charcoal-stripped serum
Description: as §1

[4] = test system: IGR-CaP1 cells; test: Cell cycle analysis by flow cytometry after propidium iodide staining; conditions: sensitive IGR-CaP1 cells, 100 nM docetaxel for 48 h
Description: (§2) Freshly plated IGR-CaP1 and IGR-CaP1-R100 cells were incubated for 48 h in complete medium containing or not 100 nM of docetaxel. Cell cycle distribution was studied on 70% cold ethanol-fixed cells, by propidium iodide staining (50 μg in PBS) and RNAse treatment (20 μg) followed by flow cytometry analysis (FACScalibur Becton-Dickinson).

[5] = test system: IGR-CaP1-R100 cells; test: as above; conditions: IGR-CaP1-R100 cells resistant to 100 nM docetaxel, 100 nM docetaxel for 48 h
Description: as §2

[6] = test system: IGR-CaP1-R100 cell line; test: Resistance of the cell line to a cytotoxic drug

## C[C@]12CCC(=O)C[C@@H]1CC[C@@H]1[C@@H]2CC[C@]2(C)[C@@H](O)CC[C@@H]12 [DHT]
[1]
  Cellular growth in the presence of androgen: did not affect the cellular growth
[2]
  Cellular growth in the presence of androgen: did not affect the cellular growth
[3]
  Cellular growth in the presence of androgen: increased

## CC(=O)O[C@@]12CO[C@@H]1C[C@H](O)[C@@]1(C)C(=O)[C@H](O)C3=C(C)[C@@H](OC(=O)[C@H](O)[C@@H](NC(=O)OC(C)(C)C)c4ccccc4)C[C@@](O)([C@@H](OC(=O)c4ccccc4)[C@H]21)C3(C)C [docetaxel]
[4]
  Cell cycle distribution (block in G2-M phase): blocked in G2-M phase
[5]
  Cell cycle distribution (block in G2-M phase): normally cycle; also recorded: not blocked in G2-M phase

## N.N.[Cl][Pt][Cl] [cisplatin]
[6]
  Resistance of the cell line to the drug: resistant
